# ChEMBL document CHEMBL1221184, “Identifying off-target effects and hidden phenotypes of drugs in human cells” (Nat Chem Biol, 2006)
# Legend:
# Format in all cases: functional
# [1] = system: PC-3; assay: Antiproliferative activity against human PC3 cells at 20 uM after 120 hrs by MTT assay relative to DMSO
# [2] = system: PC-3; assay: Antiproliferative activity against human PC3 cells at 3 uM after 120 hrs by MTT assay relative to DMSO
# [3] = system: PC-3; assay: Antiproliferative activity against human PC3 cells at 12.5 uM after 120 hrs by MTT assay relative to DMSO
# [4] = system: PC-3; assay: Antiproliferative activity against human PC3 cells at 10 ng/ml after 120 hrs by MTT assay relative to DMSO
compound,measurement,setting,value
COc1cccc(-c2cc(=O)c3ccccc3o2)c1N,fold change (FC),[1],0.901
CN(CCOc1ccc(C[C@H](Nc2ccccc2C(=O)c2ccccc2)C(=O)O)cc1)c1ccccn1,fold change (FC),[2],0.956
O=c1c(-c2ccc(O)cc2)coc2cc(O)cc(O)c12 [GENISTEIN],fold change (FC),[3],1.074
CCC(=C/[C@H](C)C/C=C/C(C)=C/[C@@H](C)C(=O)[C@@H](C)[C@H](O)[C@@H](C)C/C(C)=C/C(=O)O)/C=C/[C@@H]1OC(=O)C=C[C@@H]1C [LEPTOMYCIN B],fold change (FC),[4],0.262
